Measurements as given in patent US7163952B2, “Azole compound and medicinal use thereof” (Japan Tobacco Inc., priority 2001, dated 2007).

Structure (SMILES)	melting point
O=C(O)c1ccc(N(CC2CCCCC2)c2nc(-c3ccc(OCc4ccc(C5CCCCC5)cc4)cc3)cs2)cc1 [Example 25, 4-(N-(4-(4-(4-cyclohexylbenzyloxy)phenyl)-2-thiazolyl)-N-cyclohexylmethylamino)benzoic acid]	230 °C (dec.)
O=C(O)c1cccc(Nc2nc(-c3ccc(NC(=O)c4ccc(C5CCCCC5)cc4)cc3)cs2)c1 [Example 27, 3-(4-(4-(4-cyclohexylbenzoylamino)phenyl)-2-thiazolylamino)benzoic acid]	230 °C (dec.)
CC(C)N(c1ccc(C(=O)O)c(Cl)c1)c1nc(-c2ccc(NC(=O)c3ccc(C4CCCCC4)cc3)cc2)cs1 [Example 38, 2-chloro-4-(N-(4-(4-(4-cyclohexylbenzoylamino)phenyl)-2-thiazolyl)-N-isopropylamino)benzoic acid]	220 °C (dec.)
CC(C)(c1ccc(C(=O)O)cc1)c1nc(-c2ccc(OCc3ccc(C4CCCCC4)cc3)cc2)cs1 [Example 42, 4-(1-(4-(4-(4-cyclohexylbenzyloxy)phenyl)-2-thiazolyl)-1-methylethyl)benzoic acid]	219 to 221 °C
CC(C)(c1ccc(C(=O)O)cc1)c1nc(-c2ccc(NC(=O)c3ccc(N4CCOCC4)cc3)cc2)cs1 [Example 44, 4-(1-methyl-1-(4-(4-(4-morpholinobenzoylamino)phenyl)-2-thiazolyl)ethyl)benzoic acid]	290 °C (dec.)
CC(C)(c1ccc(C(=O)O)cc1)c1nc(-c2ccc(NC(=O)c3ccc(N4CCCCC4)cc3)cc2)cs1 [Example 45, 4-(1-methyl-1-(4-(4-(4-piperidinobenzoylamino)phenyl)-2-thiazolyl)ethyl)benzoic acid]	268 to 271 °C
O=C(O)c1ccc(Cc2nc(-c3ccc(OCc4ccc(C5CCCCC5)cc4)cc3)cs2)cc1 [Example 48, 4-(4-(4-(4-cyclohexylbenzyloxy)phenyl)-2-thiazolylmethyl)benzoic acid]	235 to 238 °C
O=C(O)c1ccc(COc2ccc(-c3csc(Cc4ccc(C(=O)O)cc4)n3)cc2)cc1 [Example 49, 4-(4-(4-(4-carboxybenzyloxy)phenyl)-2-thiazolylmethyl)benzoic acid]	270 °C (dec.)
CC(C)N(c1ccc(OCC(=O)O)cc1)c1nc(-c2ccc(NC(=O)C3CCCCC3)cc2)cs1 [Example 50, (4-(N-(4-(4-(cyclohexanecarbonylamino)phenyl)-2-thiazolyl)-N-isopropylamino)phenoxy)acetic acid]	225 °C (dec.)
CC(C)N(c1ccc(OCC(=O)O)cc1)c1nc(-c2ccc(NC(=O)c3cc(Cl)cc(Cl)c3)cc2)cs1 [Example 56, (4-(N-(4-(4-(3,5-dichlorobenzoylamino)phenyl)-2-thiazolyl)-N-isopropylamino)phenoxy)acetic acid]	192 to 194 °C
CC(C)N(c1ccc(OCC(=O)O)cc1)c1nc(-c2ccc(NC(=O)c3ccc(N4CCCCC4)nc3)cc2)cs1 [Example 57, (4-(N-isopropyl-N-(4-(4-(2-piperidino-5-pyridinecarbonylamino)phenyl)-2-thiazolyl)amino)phenoxy)acetic acid]	237 to 240 °C
CC(C)N(Cc1ccc(C(=O)O)cc1)c1nc(-c2ccc(NC(=O)c3ccc(C4CCCCC4)cc3)cc2)cs1 [Example 61, 4-((N-(4-(4-(4-cyclohexylbenzoylamino)phenyl)-2-thiazolyl)-N-isopropylamino)methyl)benzoic acid]	250 °C (dec.)
CC(C)N(Cc1ccc(C(=O)O)cc1)c1nc(-c2ccc(NC(=O)c3ccc(N4CCCCC4)cc3)cc2)cs1 [Example 62, 4-((N-isopropyl-N-(4-(4-(4-piperidinobenzoylamino)phenyl)-2-thiazolyl)amino)methyl)benzoic acid]	234 °C (dec.)
CC(C)N(Cc1ccc(C(=O)O)cc1)c1nc(-c2ccc(NC(=O)c3ccc(N4CCOCC4)cc3)cc2)cs1 [Example 63, 4-((N-isopropyl-N-(4-(4-(4-morpholinobenzoylamino)phenyl)-2-thiazolyl)amino)methyl)benzoic acid]	250 °C (dec.)
CC(C)Oc1ccc(C(=O)Nc2ccc(-c3csc(Cc4ccc(C(=O)O)cc4)n3)cc2)cc1 [Example 69, 4-(4-(4-(4-isopropoxybenzoylamino)phenyl)-2-thiazolylmethyl)benzoic acid]	230 °C (dec.)
O=C(O)c1ccc(Cc2nc(-c3ccc(NC(=O)c4ccc(-n5cccc5)cc4)cc3)cs2)cc1 [Example 70, 4-(4-(4-(4-(1-pyrrolyl)benzoylamino)phenyl)-2-thiazolylmethyl)benzoic acid]	220 °C (dec.)
O=C(O)c1ccc(Nc2nc(-c3ccc(OCc4ccc(C5CCCCC5)cc4)cc3)cs2)c(OCc2ccccc2)c1 [Example 73, 3-benzyloxy-4-(4-(4-(4-cyclohexylbenzyloxy)phenyl)-2-thiazolylamino)benzoic acid]	230 °C (dec.)

Other lines, results leading:

melting point	Structure (SMILES)
238 to 240 °C	CC(C)N(c1ccc(C(=O)O)cc1)c1nc(-c2ccc(OCc3ccc(C4CCCCC4)cc3)cc2)cs1 [Example 24, 4-(N-(4-(4-(4-cyclohexylbenzyloxy)phenyl)-2-thiazolyl)-N-isopropylamino)benzoic acid]
230 °C (dec.)	O=C(O)CCCN(c1ccc(C(=O)O)cc1)c1nc(-c2ccc(OCc3ccc(C4CCCCC4)cc3)cc2)cs1 [Example 26, 4-(N-(3-carboxypropyl)-N-(4-(4-(4-cyclohexylbenzyloxy)phenyl)-2-thiazolyl)amino)benzoic acid]
230 °C (dec.)	CC(C)N(c1cccc(C(=O)O)c1)c1nc(-c2ccc(NC(=O)c3ccc(C4CCCCC4)cc3)cc2)cs1 [Example 28, 3-(N-(4-(4-(4-cyclohexylbenzoylamino)phenyl)-2-thiazolyl)-N-isopropylamino)benzoic acid]
230 °C (dec.)	CC(C)N(c1ccc(C(=O)[O-])cc1)c1nc(-c2ccc(OCc3ccc(C4CCCCC4)cc3)cc2)cs1.[Na+] [Example 34, sodium 4-(N-(4-(4-(4-cyclohexylbenzyloxy)phenyl)-2-thiazolyl)-N-isopropylamino)benzoate]
230 °C (dec.)	CC(C)N(c1ccc(C(=O)[O-])cc1)c1nc(-c2ccc(NC(=O)c3ccc(N4CCN(C)CC4)cc3)cc2)cs1.[Na+] [Example 37, sodium 4-(N-isopropyl-N-(4-(4-(4-(4-methyl-1-piperazinyl)benzoylamino)phenyl)-2-thiazolyl)amino)benzoate]
220 °C (dec.)	CC(C)N(c1ccc(C(=O)O)c(Cl)c1)c1nc(-c2ccc(NC(=O)c3ccc(N4CCN(C)CC4)cc3)cc2)cs1 [Example 41, 2-chloro-4-(N-isopropyl-N-(4-(4-(4-(4-methyl-1-piperazinyl)benzoylamino)phenyl)-2-thiazolyl)amino)benzoic acid]
262 to 264 °C	CC(C)(c1ccc(C(=O)O)cc1)c1nc(-c2ccc(NC(=O)c3ccc(C4CCCCC4)cc3)cc2)cs1 [Example 43, 4-(1-(4-(4-(4-cyclohexylbenzoylamino)phenyl)-2-thiazolyl)-1-methylethyl)benzoic acid]
230 °C (dec.)	CC(C)N(c1ccc(C(=O)O)cc1)c1nc(-c2ccc(NC(=O)CCCC3CCCCC3)cc2)cs1 [Example 46, 4-(N-(4-(4-(4-cyclohexylbutyrylamino)phenyl)-2-thiazolyl)-N-isopropylamino)benzoic acid]
223 to 228 °C	CC(C)(C)c1ccc(COc2ccc(-c3csc(Cc4ccc(C(=O)O)cc4)n3)cc2)cc1 [Example 47, 4-(4-(4-(4-tert-butylbenzyloxy)phenyl)-2-thiazolylmethyl)benzoic acid]
240 °C (dec.)	CC(C)N(c1ccc(OCC(=O)O)cc1)c1nc(-c2ccc(NC(=O)c3ccc(C4CCCCC4)cc3)cc2)cs1 [Example 51, (4-(N-(4-(4-(4-cyclohexylbenzoylamino)phenyl)-2-thiazolyl)-N-isopropylamino)phenoxy)acetic acid]
153 to 157 °C	CC(C)N(c1nc(-c2ccc(NC(=O)c3ccc(C4CCCCC4)cc3)cc2)cs1)c1c(F)c(F)c(C(=O)O)c(F)c1F [Example 52, 4-(N-(4-(4-(4-cyclohexylbenzoylamino)phenyl)-2-thiazolyl)-N-isopropylamino)-2,3,5,6-tetrafluorobenzoic acid]
220 °C (dec.)	CC(C)N(c1ccc(OCC(=O)O)cc1)c1nc(-c2ccc(NC(=O)c3ccc(N4CCCCC4)cc3)cc2)cs1 [Example 53, (4-(N-isopropyl-N-(4-(4-(4-piperidinobenzoylamino)phenyl)-2-thiazolyl)amino)phenoxy)acetic acid]
250 °C (dec.)	CC(C)N(c1ccc(OCC(=O)O)cc1)c1nc(-c2ccc(NC(=O)c3ccc(N4CCOCC4)cc3)cc2)cs1 [Example 54, (4-(N-isopropyl-N-(4-(4-(4-morpholinobenzoylamino)phenyl)-2-thiazolyl)amino)phenoxy)acetic acid]
250 °C (dec.)	CC(C)N(Cc1ccc(C(=O)O)cc1)c1nc(-c2ccc(NC(=O)c3ccc(-c4ccccc4)cc3)cc2)cs1 [Example 64, 4-((N-(4-(4-(4-biphenylcarbonylamino)phenyl)-2-thiazolyl)-N-isopropylamino)methyl)benzoic acid]
233 to 234 °C	CC(C)N(Cc1ccc(C(=O)O)cc1)c1nc(-c2ccc(OCc3ccc(C4CCCCC4)cc3)cc2)cs1 [Example 65, 4-((N-(4-(4-(4-cyclohexylbenzyloxy)phenyl)-2-thiazolyl)-N-isopropylamino)methyl)benzoic acid]
230 °C (dec.)	O=C(O)c1ccc(Cc2nc(-c3ccc(NC(=O)c4ccc(C5CCCCC5)cc4)cc3)cs2)cc1 [Example 68, 4-(4-(4-(4-cyclohexylbenzoylamino)phenyl)-2-thiazolylmethyl)benzoic acid]
259 to 261 °C	O=C(O)c1ccc(C(=O)c2nc(-c3ccc(OCc4ccc(C5CCCCC5)cc4)cc3)cs2)cc1 [Example 71, 4-(4-(4-(4-cyclohexylbenzyloxy)phenyl)-2-thiazolecarbonyl)benzoic acid]
230 °C (dec.)	O=C(O)c1ccc(Nc2nc(-c3ccc(OCc4ccc(C5CCCCC5)cc4)cc3)cs2)c(OCCC2CCCCC2)c1 [Example 72, 4-(4-(4-(4-cyclohexylbenzyloxy)phenyl)-2-thiazolylamino)-3-(2-cyclohexylethoxy)benzoic acid]
